Results published in patent US20120108629A1, “New use of neferine” (Institute of Chinese Materia Medica, China Academy, priority 2009, published 2012).

Assays:
TRPM8 mRNA = TRPM8 mRNA expression in DRG cells by real-time PCR; settings: DRG cells
Protocol: DRG were aseptically removed and meticulously cleaned the rootlets and connective tissue. The tissue was digested with collagenase and trypsin in succession, and then centrifuged and the digestive liquid was discarded. Cells were prepared into single cell suspension in common culture medium, and then calculated and adjusted to 10^5 nerve cells per ml. It was incubated in culture plates pre-coated with laminin at 37° C. in 5% CO2 for 48 hours. Camptothecine was used to inhibit proliferation of other cells. Culture was continued to obtain DRG cells with a high purity (>98%).
Detection of TRPM8 and TRPV1 mRNA expression: The total RNA of the DRG neuronal cells was extracted in a routine way, after exposure to the tested agents of various concentrations under the normal, low and high temperature conditions respectively. The concentration of RNA was measured and its cDNA was prepared. The desired amount of resulting cDNA and TRPM8 or TRPV1 gene primers were added on the IQ5-Type real-time IQ5-Type real-time PCR meter with GAPDH as the endogenous control to perform extension. Melting curves were generated. Relative gene expression was calculated using the comparative threshold cycle (2-^ΔΔCT) method with the calculated formula as following:
ΔΔCt=(Ct,Target-Ct,GAPDH)x-(Ct,Target-Ct,GAPDH)Control
X represents any one of tested, Control represents double target gene expression after GAPDH correction.
The purified culture medium of DRG cells was added with three different concentrations of test compounds and cultured at 37° C. in 5% CO2 for 24 h. The total RNA was extracted immediately after culture. The TRPM8 agonist hexahydrothymol was positive control group and the normal culture medium was vehicle control group. Then the real-time PCR amplification was performed and TRPM8 mRNA was determined.
The purified culture medium of DRG cells was added with three different concentrations of test compounds and cultured at 37° C. in 5% CO2 for 23 h followed by 39° C. in 5% CO2 for 1 h. The total RNA was extracted immediately after culture. The TRPM8 agonist hexahydrothymol was positive control group and the normal culture medium was vehicle control group. Then the real-time PCR amplification was performed and TRPM8 mRNA was determined.
The purified culture medium of DRG cells was added with three different concentrations of test compounds and cultured at 37° C. in 5% CO2 for 22 h followed by 19° C. in 5% CO2 for 2 h. The total RNA was extracted immediately after culture. The TRPM8 agonist hexahydrothymol was positive control group and the normal culture medium was vehicle control group. Then the real-time PCR amplification was performed and TRPM8 mRNA was determined.

TRPV1 [1] = assay: Intracellular calcium change in DRG cells, Fluo-4 fluorescence (Examples 4-5, Tables 4-5); type: cell-based, rat
Protocol: (§1) Detection of intracellular calcium concentrations of DRG cells: DRG cells cultured under normal, low and high temperature conditions was obtained. The medium was discarded and the cells were washed after certain time. 0.1%F-127, 5 μM of Fluo-4-AM, M fluorescent dye were added and loaded at 25° C. out of light for 30 min. After dye loading, the redundant dye was washed out and buffer and test compounds were added respectively. The cells were put in a closed chamber on a microscope stage. Fluorescence dyed cells were detected with appropriate conditions. The change of fluorescence intensity in each cell was determined and the data were analyzed by software. The change of the intracellular calcium concentration was indicated by fluorescence intensity. The change degree of the intracellular calcium concentration was represented by the percent ratio of the change value of fluorescence intensity before and after administration and the value of fluorescence intensity before administration (Δ[Ca2+]i), i.e. Δ[Ca2+]i=(fluorescence intensity value after administration F-fluorescence intensity value before administration F0)/fluorescence intensity value before administration F0×100%. The change of the intracellular calcium concentration indicated the function of TRP.
(§2) The medium was discarded and the fluorescent dye was added and loaded for 30 min. The change of fluorescence intensity in cell was determined in a closed chamber on a microscope stage and the change of the intracellular calcium concentration was assayed.
as §2

TRPV1 mRNA = TRPV1 mRNA expression in DRG cells by real-time PCR; type: cell-based, rat; settings: for TRPV1 mRNA expression (2^−ΔΔCT): 37° C. 24 h
TRPV1 [2] = target: TRPV1 (Rattus norvegicus, UniProt O35433); assay: Intracellular calcium change in DRG cells, Fluo-4 fluorescence (Examples 9-11, Tables 9-11); type: cell-based
Protocol: as §1, §2, §2
(this is the appropriate stimulation time for the intracellular calcium change after stimulation under 19° C., and the experiment data was not shown). The medium was discarded and the fluorescent dye was added and loaded for 30 min.

[3] = 37° C. 22 h then 19° C. 2 h, 37.5 μmol/L
[4] = 37° C. 22 h then 19° C. 2 h, 75 μmol/L
[5] = 37° C. 22 h then 19° C. 2 h, 150 μmol/L
[6] = 37° C. 23 h then 39° C. 1 h, 37.5 μmol/L
[7] = 37° C. 23 h then 39° C. 1 h, 75 μmol/L
[8] = 37° C. 23 h then 39° C. 1 h, 150 μmol/L

Chain of TRPV1 (Rattus norvegicus, UniProt O35433) (O35433 whole entry): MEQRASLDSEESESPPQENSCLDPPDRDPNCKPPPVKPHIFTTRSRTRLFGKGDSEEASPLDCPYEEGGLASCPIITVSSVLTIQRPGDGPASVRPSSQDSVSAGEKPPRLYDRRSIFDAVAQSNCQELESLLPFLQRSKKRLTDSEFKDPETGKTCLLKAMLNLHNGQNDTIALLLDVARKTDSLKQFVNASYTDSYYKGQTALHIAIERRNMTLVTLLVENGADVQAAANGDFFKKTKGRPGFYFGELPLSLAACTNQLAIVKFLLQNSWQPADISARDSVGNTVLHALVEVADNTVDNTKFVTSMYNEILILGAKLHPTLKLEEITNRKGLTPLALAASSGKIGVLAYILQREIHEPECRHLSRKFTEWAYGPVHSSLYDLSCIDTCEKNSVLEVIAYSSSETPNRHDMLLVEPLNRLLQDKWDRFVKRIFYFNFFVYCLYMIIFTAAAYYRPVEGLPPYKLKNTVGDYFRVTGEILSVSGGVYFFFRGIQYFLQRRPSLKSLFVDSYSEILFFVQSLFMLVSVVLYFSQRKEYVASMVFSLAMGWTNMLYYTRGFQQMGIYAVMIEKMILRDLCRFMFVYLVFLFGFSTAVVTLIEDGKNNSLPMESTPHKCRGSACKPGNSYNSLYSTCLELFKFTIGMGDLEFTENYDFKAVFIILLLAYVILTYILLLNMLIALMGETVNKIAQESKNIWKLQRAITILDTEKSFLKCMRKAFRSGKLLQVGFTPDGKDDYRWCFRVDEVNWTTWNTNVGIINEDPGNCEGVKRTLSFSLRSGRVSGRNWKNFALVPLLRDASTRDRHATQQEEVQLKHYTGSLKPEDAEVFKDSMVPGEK

In the case of `CC1CCC(C(C)C)C(O)C1` (stereo not drawn) [hexahydrothymol, reference compound], the “TRPM8 mRNA expression (2^−ΔΔCT)” value (TRPM8 mRNA; [3]) is reported as 3.67 ± 0.93, the “TRPM8 mRNA expression (2^−ΔΔCT)” value (TRPM8 mRNA; [4]) is reported as 3.72 ± 1.09 and the “TRPM8 mRNA expression (2^−ΔΔCT)” value (TRPM8 mRNA; [5]) is reported as 4.07 ± 1.12. The “TRPM8 mRNA expression (2^−ΔΔCT)” value (TRPM8 mRNA; [6]) was 0.89 ± 0.25, the “TRPM8 mRNA expression (2^−ΔΔCT)” value (TRPM8 mRNA; [7]) was 0.91 ± 0.27 and the “TRPM8 mRNA expression (2^−ΔΔCT)” value (TRPM8 mRNA; [8]) was 0.96 ± 0.32. The “TRPM8 mRNA expression (2^−ΔΔCT)” value (TRPM8 mRNA; 37° C. 24 h, 37.5 μmol/L) was 1.13 ± 0.22, the “TRPM8 mRNA expression (2^−ΔΔCT)” value (TRPM8 mRNA; 37° C. 24 h, 75 μmol/L) was 1.20 ± 0.28 and the “TRPM8 mRNA expression (2^−ΔΔCT)” value (TRPM8 mRNA; 37° C. 24 h, 150 μmol/L) was 1.29 ± 0.31. The “Intracellular Calcium changes [(F1 − F0)/F0/%]” value (TRPV1 [1]; Table 4, DRG cells, 37° C. 24 h, 37.5 μmol/L) was 116.52 ± 10.22%, the “Intracellular Calcium changes [(F1 − F0)/F0/%]” value (TRPV1 [1]; Table 4, DRG cells, 37° C. 24 h, 75 μmol/L) was 117.46 ± 13.58% and the “Intracellular Calcium changes [(F1 − F0)/F0/%]” value (TRPV1 [1]; Table 4, DRG cells, 37° C. 24 h, 150 μmol/L) was 120.65 ± 12.19%. The “Intracellular Calcium changes [(F1 − F0)/F0/%]” value (TRPV1 [1]; Table 5, DRG cells, 37° C. 22 h then 39° C. 2 h, 37.5 μmol/L) was 107.54 ± 13.09%, the “Intracellular Calcium changes [(F1 − F0)/F0/%]” value (TRPV1 [1]; Table 5, DRG cells, 37° C. 22 h then 39° C. 2 h, 75 μmol/L) was 108.63 ± 15.17% and the “Intracellular Calcium changes [(F1 − F0)/F0/%]” value (TRPV1 [1]; Table 5, DRG cells, 37° C. 22 h then 39° C. 2 h, 150 μmol/L) was 112.92 ± 13.19 %. The “TRP V1 mRNA expression(2^−ΔΔCT)” value (TRPV1 mRNA; [3]) was 0.54 ± 0.17, the “TRP V1 mRNA expression(2^−ΔΔCT)” value (TRPV1 mRNA; [4]) was 0.48 ± 0.19 and the “TRP V1 mRNA expression(2^−ΔΔCT)” value (TRPV1 mRNA; [5]) was 0.47 ± 0.15. The “TRP V1 mRNA expression(2^−ΔΔCT)” value (TRPV1 mRNA; [6]) was 4.22 ± 0.49, the “TRP V1 mRNA expression(2^−ΔΔCT)” value (TRPV1 mRNA; [7]) was 4.01 ± 0.73 and the “TRP V1 mRNA expression(2^−ΔΔCT)” value (TRPV1 mRNA; [8]) was 4.05 ± 0.81. For the same molecule, the “TRPV1 mRNA expression (2^−ΔΔCT)” value (TRPV1 mRNA; 37.5 μmol) was 0.96 ± 0.21, the “TRPV1 mRNA expression (2^−ΔΔCT)” value (TRPV1 mRNA; 75 μmol) was 1.10 ± 0.28 and the “TRPV1 mRNA expression (2^−ΔΔCT)” value (TRPV1 mRNA; 150 μmol) was 1.08 ± 0.31. The “Intracellular Calcium changes [(F1 − F0)/F0/%]” value (TRPV1 [2]; Table 9, DRG cells, 37° C. 24 h, 37.5 μmol/L) was 100.14 ± 11.26%, the “Intracellular Calcium changes [(F1 − F0)/F0/%]” value (TRPV1 [2]; Table 9, DRG cells, 37° C. 24 h, 75 μmol/L) was 101.82 ± 14.89% and the “Intracellular Calcium changes [(F1 − F0)/F0/%]” value (TRPV1 [2]; Table 9, DRG cells, 37° C. 24 h, 150 μmol/L) was 98.31 ± 12.17%. For the same molecule, the “Intracellular Calcium changes [(F1 − F0)/F0/%]” value (TRPV1 [2]; Table 10, DRG cells, 37° C. 22 h then 39° C. 2 h, 37.5 μmol/L) was 133.49 ± 15.18%, the “Intracellular Calcium changes [(F1 − F0)/F0/%]” value (TRPV1 [2]; Table 10, DRG cells, 37° C. 22 h then 39° C. 2 h, 75 μmol/L) was 132.01 ± 14.50% and the “Intracellular Calcium changes [(F1 − F0)/F0/%]” value (TRPV1 [2]; Table 10, DRG cells, 37° C. 22 h then 39° C. 2 h, 150 μmol/L) was 126.08 ± 12.48%. For the same molecule, the “Intracellular Calcium changes [(F1 − F0)/F0/%]” value (TRPV1 [2]; Table 11, DRG cells, 37° C. 21 h then 19° C. 3 h, 37.5 μmol/L) was 96.91 ± 11.34%, the “Intracellular Calcium changes [(F1 − F0)/F0/%]” value (TRPV1 [2]; Table 11, DRG cells, 37° C. 21 h then 19° C. 3 h, 75 μmol/L) was 96.75 ± 11.08% and the “Intracellular Calcium changes [(F1 − F0)/F0/%]” value (TRPV1 [2]; Table 11, DRG cells, 37° C. 21 h then 19° C. 3 h, 150 μmol/L) was 95.48 ± 10.23%.
